The values that follow come from ChEMBL document CHEMBL1156967 (Bioorg Med Chem Lett, 2010).

What is called IC50 is the concentration at which inhibition is half-maximal. In general, bioavailability refers to the share of a dose that reaches the circulation, judged against a reference dose that is usually intravenous. One may read the Vd as a proportionality between amount in the body and measured concentration, not a real space. The term half-life denotes the time needed for the level to fall by half in the phase considered. As a reminder, the CLint scaled is a measure of how fast metabolising enzymes remove a compound, apart from limits set by blood flow. The low end stands for slow turnover, the high end for rapid turnover. As usually defined, the inhibition in vivo is the share of the control response that was lost under treatment. Broadly, the clearance is the rate of elimination divided by the concentration. A low value points to inefficient removal. By inhibition is commonly meant the percentage by which the read-out fell short of the control. Higher therefore signals a response far below the control.

The target of series [1] is Mitogen-activated protein kinase 11 (Homo sapiens, UniProt Q15759). Description: Inhibition of p38beta assessed as gamma-[33P]ATP incorporation by scintillation counting.
Series [2] in a line: Bioavailability in rat at 5 mg/kg, iv. The series is classed as ADME, organism-based. To be noted: in vivo.
Series [3] in a line: Bioavailability in dog at 2.5 mg/kg, iv. In kind it is ADME, organism-based, Canis lupus familiaris. To be noted: in vivo.
Series [4] is described as follows: Volume of distribution in rat at 5 mg/kg, iv. In kind it is ADME, organism-based. The arrangement: dose 5 mg/kg, route intravenous. To be noted: in vivo.
The nature of series [5]: Volume of distribution in dog at 2.5 mg/kg, iv. In kind it is ADME, organism-based, Canis lupus familiaris. The arrangement: dose 2.5 mg/kg, route intravenous. As to conditions: in vivo.
Series [6] is described as follows: Half life in human liver microsomes. In kind it is ADME, Microsome. (Liver microsomes are a subcellular fraction often used to study metabolism.)
Series [7] can be described thus: Intrinsic clearance in human liver microsomes. The series is classed as ADME, Microsome.
Series [8] in a line: Half life in dog at 2.5 mg/kg, iv. The series is classed as ADME, organism-based, Canis lupus familiaris. The arrangement: dose 2.5 mg/kg, route intravenous. As to conditions: in vivo.
In series [9] the test system is Rattus norvegicus. Description: Antiinflammatory activity in Lewis rat assessed as reduction in LPS-stimulated TNFalpha accumulation at 1 mg/kg, ig administered 4 hrs before LPS challenge measured after […] by ELISA. The series is classed as functional. To be noted: po, route intragastric. Background: In an ELISA, binding on a coated surface is turned into a signal by an enzyme label.

The nature of series [10]: Clearance in rat at 5 mg/kg, iv. The arrangement: dose 5 mg/kg, route intravenous. In kind it is ADME, organism-based. To be noted: in vivo.
A further series concerns Mus musculus. The series can be described thus: Antiarthritic activity against collagen-induced arthritis in DBA/1 mouse chronic CIA model assessed as incidence of arthritis at 30 mg/kg, po after 21 days. The series is classed as functional.
The target in a further series is hERG (KCNH2) (Homo sapiens, UniProt Q12809). Description: Displacement of dofetilide from human ERG at 10 uM. As to conditions: probe dofetilide.
Series [11] deals with Rattus norvegicus. The series can be described thus: Antiinflammatory activity in Lewis rat plasma assessed as reduction in LPS-stimulated TNFalpha accumulation at 5 mg/kg, ig administered 4 hrs before LPS challenge measured after […] by ELISA. The series is classed as functional. As to conditions: po, route intragastric.
Series [12] is described as follows: Clearance in dog at 2.5 mg/kg, iv. The arrangement: dose 2.5 mg/kg, route intravenous. As to conditions: in vivo. In kind it is ADME, organism-based, Canis lupus familiaris.
A short description of series [13]: Half life in rat at 5 mg/kg, iv. In kind it is ADME, organism-based. The arrangement: dose 5 mg/kg, route intravenous. To be noted: in vivo.
For series [14], the target named is Mitogen-activated protein kinase 14 (Homo sapiens, UniProt Q16539). The series can be described thus: Inhibition of p38alpha assessed as gamma-[33P]ATP incorporation by scintillation counting.
Series [15] can be described thus: Selectivity ratio of IC50 for p38 beta to IC50 for p38alpha.
A further series deals with Blood. The series can be described thus: Antiinflammatory activity against LPS-induced TNFalpha production in human whole blood treated 1 hr before LPS challenge measured after 4 hrs by ELISA. In kind it is functional, tissue-based.
For series [16], the system named is Rattus norvegicus. Description: Antiinflammatory activity in Lewis rat plasma assessed as reduction in LPS-stimulated TNFalpha accumulation at 20 mg/kg, ig administered 4 hrs before LPS challenge measured after […] by ELISA. To be noted: po, route intragastric. In kind it is functional.

hERG (KCNH2), sequence (Q12809 whole entry): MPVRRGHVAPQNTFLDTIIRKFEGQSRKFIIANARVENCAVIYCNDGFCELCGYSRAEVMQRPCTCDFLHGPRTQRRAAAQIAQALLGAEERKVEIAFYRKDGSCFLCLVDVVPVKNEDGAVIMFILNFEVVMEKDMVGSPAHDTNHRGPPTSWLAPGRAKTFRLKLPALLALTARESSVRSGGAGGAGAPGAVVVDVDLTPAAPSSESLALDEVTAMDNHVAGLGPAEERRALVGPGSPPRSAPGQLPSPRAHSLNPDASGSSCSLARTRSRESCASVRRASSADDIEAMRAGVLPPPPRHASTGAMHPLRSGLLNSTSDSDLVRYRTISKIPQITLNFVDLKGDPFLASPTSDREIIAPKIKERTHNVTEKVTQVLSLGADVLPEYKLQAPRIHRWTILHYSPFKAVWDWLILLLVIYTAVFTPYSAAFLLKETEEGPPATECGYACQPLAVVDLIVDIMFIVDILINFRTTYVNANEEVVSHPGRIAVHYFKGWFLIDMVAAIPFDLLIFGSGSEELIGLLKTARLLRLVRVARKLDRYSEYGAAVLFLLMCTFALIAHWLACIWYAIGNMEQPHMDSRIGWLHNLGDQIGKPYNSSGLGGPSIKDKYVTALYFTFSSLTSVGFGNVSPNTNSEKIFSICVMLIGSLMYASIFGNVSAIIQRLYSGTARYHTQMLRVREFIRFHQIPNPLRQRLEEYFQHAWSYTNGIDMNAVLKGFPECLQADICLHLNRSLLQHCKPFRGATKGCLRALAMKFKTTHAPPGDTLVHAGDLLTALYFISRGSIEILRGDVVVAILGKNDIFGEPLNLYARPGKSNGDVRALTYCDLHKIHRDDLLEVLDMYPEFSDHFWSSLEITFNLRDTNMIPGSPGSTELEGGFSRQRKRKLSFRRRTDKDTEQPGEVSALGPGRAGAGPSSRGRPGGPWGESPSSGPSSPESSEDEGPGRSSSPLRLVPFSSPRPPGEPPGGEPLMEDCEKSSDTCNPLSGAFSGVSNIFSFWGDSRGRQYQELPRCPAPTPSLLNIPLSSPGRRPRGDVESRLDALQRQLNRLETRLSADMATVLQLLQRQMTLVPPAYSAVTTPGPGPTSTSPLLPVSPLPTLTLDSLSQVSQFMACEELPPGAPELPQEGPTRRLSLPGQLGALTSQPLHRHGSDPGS
Mitogen-activated protein kinase 14, sequence (Q16539 whole entry): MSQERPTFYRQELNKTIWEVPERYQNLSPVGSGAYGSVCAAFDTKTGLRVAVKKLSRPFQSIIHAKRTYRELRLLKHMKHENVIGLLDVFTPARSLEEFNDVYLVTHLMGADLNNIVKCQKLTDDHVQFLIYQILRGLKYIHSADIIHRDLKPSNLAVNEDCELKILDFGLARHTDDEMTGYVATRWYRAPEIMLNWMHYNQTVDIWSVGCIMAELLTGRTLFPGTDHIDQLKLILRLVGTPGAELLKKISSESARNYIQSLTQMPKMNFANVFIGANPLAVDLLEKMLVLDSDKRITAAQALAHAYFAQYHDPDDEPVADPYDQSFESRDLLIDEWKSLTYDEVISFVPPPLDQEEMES
Mitogen-activated protein kinase 11, sequence (Q15759 whole entry): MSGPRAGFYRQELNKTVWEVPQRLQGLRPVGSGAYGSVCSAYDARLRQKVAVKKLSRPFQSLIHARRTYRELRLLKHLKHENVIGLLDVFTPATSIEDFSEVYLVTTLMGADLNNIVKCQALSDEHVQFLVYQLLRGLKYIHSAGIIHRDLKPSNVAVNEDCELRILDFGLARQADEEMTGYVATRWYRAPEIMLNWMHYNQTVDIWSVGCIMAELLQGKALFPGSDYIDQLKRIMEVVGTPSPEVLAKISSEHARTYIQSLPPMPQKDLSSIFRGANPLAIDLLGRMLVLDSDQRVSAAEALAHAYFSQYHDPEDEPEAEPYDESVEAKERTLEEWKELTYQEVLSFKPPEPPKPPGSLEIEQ

For the compound `O=C(CO)N1CCC(c2n[nH]c(-c3ccc(Cl)cc3)c2-c2ccncn2)CC1` [SD-0006], in series [1], the 50% inhibitory concentration (IC50) worked out at 3.45 µM. Besides, the bioavailability in [2] and in series [3] was greater than 80% throughout. The Vd in [4] came to 1.74 L/kg; in series [5], 1.07 L/kg. Moreover, the half-life is greater than 120 min in series [6], 269 min in [8] and 243 min in [13]. The compound further gave a CLint scaled in series [7] of less than 8 mL/min/kg. In addition, the inhibition in vivo at 1 mg/kg with Rattus norvegicus [9] was found to be 81%. Moreover, the clearance in series [10] came out at 4.96 mL/min/kg; in series [12] it was 2.92 mL/min/kg. In the series on Mus musculus, the Activity amounted to 16%. At hERG (KCNH2), this compound displayed an inhibition at 10 µM of 16%. Besides, the inhibition in vivo at 5 mg/kg in the series with Rattus norvegicus [11] came out at 87%.

As to `CN1CCC(c2[nH]nc(-c3ccc(F)cc3)c2-c2ccncc2)CC1`, the concentration for half-maximal inhibition (IC50) in [1] came to 1.96 µM; in series [14], 54.7 nM. In addition, in the series with Rattus norvegicus [11], the inhibition in vivo at 5 mg/kg was 77%. Further, in [15], the Ratio IC50 came to 35.

Consider `OCCN1CCC(c2[nH]nc(-c3ccc(Cl)cc3)c2-c2ccncn2)CC1`, for which the figures for the concentration for half-maximal inhibition (IC50) (in [1]; in series [14]; in the series on Blood) were 2.54 µM, 35 nM and 490 nM, respectively. In series [6], this compound yielded a half-life of 47.6 min. In addition, the intrinsic metabolic clearance (CLint scaled) in series [7] was 21.4 mL/min/kg. The inhibition in vivo at 1 mg/kg in the series on Rattus norvegicus [9] turned out to be 80%. Besides, the Activity in the series on Mus musculus is listed as 61%. This compound yielded an inhibition at 10 µM on hERG (KCNH2) of 46%. Further, the inhibition in vivo at 5 mg/kg in the series on Rattus norvegicus [11] was 88%.

Consider `O=C(CO)N1CCC(c2[nH]nc(-c3ccc(Cl)cc3)c2-c2ccncc2)CC1`, for which the IC50 in series [1] was 1.79 µM. The compound also showed a half-life in series [6] of 62 min. For the same compound, the intrinsic metabolic clearance (CLint scaled) in series [7] amounted to 15.8 mL/min/kg. For the same compound, the Activity with Mus musculus is 60%. For the same compound, the inhibition at 10 µM on hERG (KCNH2) turned out to be 24%. In addition, in the series with Rattus norvegicus [11], the inhibition in vivo at 5 mg/kg turned out to be 85%.

Regarding `CS(=O)(=O)N1CCC(c2[nH]nc(-c3ccc(Cl)cc3)c2-c2ccncc2)CC1`, the 50% inhibitory concentration (IC50) in series [1] was determined as 3.53 µM; in series [14] it was 70 nM. Moreover, the inhibition in vivo at 5 mg/kg with Rattus norvegicus [11] amounted to 75%.

For the compound `CN(C)C(=O)N1CCC(c2[nH]nc(-c3ccc(Cl)cc3)c2-c2ccncn2)CC1`, the 50% inhibitory concentration (IC50) in series [1] amounted to 3.48 µM; in series [14], 88 nM. The inhibition in vivo at 1 mg/kg in the series on Rattus norvegicus [9] came to 53%. Also, the inhibition in vivo at 5 mg/kg in the series on Rattus norvegicus [11] stood at 88%.

For `Cc1ccc(-c2n[nH]c(C3CCN(C)CC3)c2-c2ccncc2)cc1`, the values for the half-inhibitory concentration (IC50) in [1] and in series [14] were 3.07 µM and 99.6 nM, respectively. Further, the inhibition in vivo at 20 mg/kg with Rattus norvegicus [16] turned out to be 44%.

Regarding `CC(=O)N1CCC(c2[nH]nc(-c3ccc(Cl)cc3)c2-c2ccncc2)CC1`, the IC50 in series [1] was 3.13 µM; in series [14], 68 nM. In addition, the half-life in series [6] is 43.3 min. Moreover, the CLint scaled in [7] is 22.5 mL/min/kg. For the same compound, in the series on Mus musculus, the Activity is 50%. Also, in the series with Rattus norvegicus [11], the inhibition in vivo at 5 mg/kg came out at 66%.

Turning to `OCCN1CCC(c2[nH]nc(-c3ccc(Cl)cc3)c2-c2ccncc2)CC1`, the IC50 in series [1] came to 3.39 µM; in series [14], 41 nM. The half-life in [6] came out at 30.5 min. Further, in series [7], the CLint scaled amounted to 32 mL/min/kg. In the series with Mus musculus, the Activity is recorded as 70%. Further, at 10 µM the inhibition at hERG (KCNH2) was 61%. The inhibition in vivo at 5 mg/kg in the series with Rattus norvegicus [11] amounted to 88%.

For the compound `Fc1ccc(-c2n[nH]c(C3CCNCC3)c2-c2ccncc2)cc1`, the IC50 came out at 0.51 µM in series [1] and 25.3 nM in [14]. The inhibition in vivo at 5 mg/kg with Rattus norvegicus [11] was 2%.

Take `O=C(O)CN1CCC(c2[nH]nc(-c3ccc(Cl)cc3)c2-c2ccncc2)CC1`: the IC50 in series [1] was 4.34 µM; in [14] it was 126 nM. The inhibition in vivo at 5 mg/kg with Rattus norvegicus [11] stood at 20%.

Consider `CN1CCC(c2[nH]nc(-c3cccc(C(F)(F)F)c3)c2-c2ccncc2)CC1`, for which the values for the IC50 in series [1] and in series [14] were 0.164 µM and 26.5 nM, respectively. For the same compound, in the series on Rattus norvegicus [11], the inhibition in vivo at 5 mg/kg came to 6%.

As to `Clc1ccc(-c2n[nH]c(C3CCN(C4CCOCC4)CC3)c2-c2ccncn2)cc1`, the values for the IC50 (in series [1]; in series [14]; in the series with Blood) were 9.5 µM, 205 nM and greater than 5000 nM, respectively. Also, in the series with Rattus norvegicus [11], the inhibition in vivo at 5 mg/kg was 46%.

On to `Fc1ccc(-c2n[nH]c(C3CCCNC3)c2-c2ccncc2)cc1` (stereo not drawn), for which the half-inhibitory concentration (IC50) is 0.404 µM in series [1] and 48.3 nM in series [14]. For the same compound, the Ratio IC50 in series [15] amounted to 6.

On to `CC(=O)N1CCC(c2[nH]nc(-c3ccc(Cl)cc3)c2-c2ccncn2)CC1`, for which the 50% inhibitory concentration (IC50) in series [1] is 3.71 µM; in series [14] it was 152 nM. Also, the half-life in series [6] was found to be 102 min. The compound also registered a CLint scaled in [7] of 9.5 mL/min/kg. Besides, in the series with Rattus norvegicus [9], the inhibition in vivo at 1 mg/kg amounted to 72%. In the series on Mus musculus, the Activity was 50%. Also, the inhibition in vivo at 5 mg/kg in the series on Rattus norvegicus [11] came to 90%.

As to `CN1CCC(c2[nH]nc(-c3ccc(Cl)cc3)c2-c2ccncn2)CC1`, the figures for the concentration for half-maximal inhibition (IC50) (in series [1]; in the series on Blood) were 2.32 µM and 800 nM, respectively. The same compound registered a half-life in series [6] of 31.2 min. In [7], this compound showed a CLint scaled of 31.5 mL/min/kg. For the same compound, in the series with Rattus norvegicus [9], the inhibition in vivo at 1 mg/kg was 36%. Besides, the Activity in the series with Mus musculus is given as 20%. This compound came in with an inhibition at 10 µM at hERG (KCNH2) of 51%. Moreover, the inhibition in vivo at 5 mg/kg in the series on Rattus norvegicus [11] stood at 63%.
